{"source": "patent US11747352B2", "about": "(Concordia University, Inc., priority 2017, dated 2023)", "origin": "cited, not measured here", "key": {"[1]": {"settings": "cited from earlier work; for Compound Type: SimCYP model parameter"}, "[2]": {"test_system": "CYP3A", "settings": "cited from earlier work"}, "[3]": {"biological_target": "CYP3A5 (Homo sapiens, UniProt P20815)", "sequence (P20815 whole entry)": "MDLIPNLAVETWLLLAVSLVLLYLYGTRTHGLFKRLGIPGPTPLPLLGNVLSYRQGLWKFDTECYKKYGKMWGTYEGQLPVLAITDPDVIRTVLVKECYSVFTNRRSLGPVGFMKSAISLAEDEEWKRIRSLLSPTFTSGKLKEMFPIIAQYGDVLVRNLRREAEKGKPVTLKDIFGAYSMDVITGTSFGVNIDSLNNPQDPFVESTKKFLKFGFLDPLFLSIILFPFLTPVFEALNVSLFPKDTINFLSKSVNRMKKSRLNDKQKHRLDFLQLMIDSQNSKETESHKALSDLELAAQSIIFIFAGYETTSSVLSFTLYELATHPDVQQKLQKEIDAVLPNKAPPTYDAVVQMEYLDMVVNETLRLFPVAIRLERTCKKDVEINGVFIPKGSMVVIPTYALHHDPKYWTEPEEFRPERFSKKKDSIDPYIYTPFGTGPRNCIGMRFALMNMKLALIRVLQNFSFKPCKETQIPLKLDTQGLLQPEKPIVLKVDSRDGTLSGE", "settings": "cited from earlier work"}, "[4]": {"settings": "cited from earlier work"}, "[5]": {"settings": "cited from earlier work", "remark": "listed apart in the source"}, "[6]": {"test_system": "plasma protein", "settings": "Table of Tyrosine Kinase Inhibitor Substrates; cited from earlier work"}}, "note": "Read-outs that look alike come from different tables or passages of the source.", "data": [{"smiles": "COC(=O)[C@H]1[C@H]2[C@@H]3CC[C@@]4(CCC(=O)O4)[C@@]3(C)C[C@H]3O[C@@]23[C@@]2(C)CCC(=O)C=C2[C@@H]1O", "note": "[6OH-EP, 6β-hydroxyeplerenone]", "values": [{"measurement": "Compound Type", "setting": "[1]", "result": "Neutral"}, {"measurement": "Blood/plasma ratio", "setting": "[1]", "result": 1}]}, {"smiles": "COC(=O)[C@@H]1CC2=CC(=O)CC[C@]2(C)[C@@]23O[C@@H]2C[C@@]2(C)[C@@H](CC[C@@]24CC(O)C(=O)O4)[C@H]13", "note": "(stereo partly shown) [21OH-EP, 21-hydroxyeplerenone]", "values": [{"measurement": "Compound Type", "setting": "[1]", "result": "Neutral"}, {"measurement": "Blood/plasma ratio", "setting": "[1]", "result": 1}]}, {"smiles": "Cc1nnc2n1-c1ccc(Cl)cc1C(c1ccccc1)=NC2", "note": "[Alprazolam]", "values": [{"measurement": "All CYP3A (% Metabolism)", "setting": "[2]", "result": 62, "unit": "%"}, {"measurement": "CYP3A5 (% Metabolism)", "setting": "[3]", "result": "<10", "unit": "%"}]}, {"smiles": "CN(C)CCC=C1c2ccccc2CCc2ccccc21", "note": "[Amitriptyline]", "values": [{"measurement": "ORAL BIOAVAILABILITY", "setting": "[4]; Table CYP2C9", "result": "30-60% ^"}, {"measurement": "ORAL BIOAVAILABILITY", "setting": "[4]; Table CYP2D6", "result": "~43-46% ^"}, {"measurement": "HALF LIFE", "setting": "[5]; Table CYP1A2", "result": "~13 to 36", "unit": "h"}, {"measurement": "HALF LIFE", "setting": "[5]; Table CYP2D6", "result": "~13 to 36", "unit": "h"}]}, {"smiles": "CCOC(=O)C1=C(COCCN)NC(C)=C(C(=O)OC)C1c1ccccc1Cl", "note": "(stereo not shown) [Amlodipine]", "values": [{"measurement": "ORAL BIOAVAILABILITY", "setting": "[4]; Table CYP3A4", "result": "64-90% ^"}]}, {"smiles": "CC(N)Cc1ccccc1", "note": "(stereo not shown) [Amphetamine]", "values": [{"measurement": "ORAL BIOAVAILABILITY", "setting": "[4]; in vivo, po", "result": 100, "unit": "%"}]}, {"smiles": "C[C@@H](O[C@H]1OCCN(Cc2n[nH]c(=O)[nH]2)[C@H]1c1ccc(F)cc1)c1cc(C(F)(F)F)cc(C(F)(F)F)c1", "note": "[Aprepitant]", "values": [{"measurement": "ORAL BIOAVAILABILITY", "setting": "[4]; Table CYP3A4", "result": "60-65% ^"}]}, {"smiles": "COC(=O)N[C@H](C(=O)N[C@@H](Cc1ccccc1)[C@@H](O)CN(Cc1ccc(-c2ccccn2)cc1)NC(=O)[C@@H](NC(=O)OC)C(C)(C)C)C(C)(C)C", "note": "[Atazanavir]", "values": [{"measurement": "ORAL BIOAVAILABILITY", "setting": "[4]; Table CYP3A4", "result": "60-68% ^"}]}, {"smiles": "CC(C)C[C@H]1C(=O)N2CCC[C@H]2[C@]2(O)O[C@](NC(=O)[C@@H]3C=C4c5cccc6[nH]c(Br)c(c56)C[C@H]4N(C)C3)(C(C)C)C(=O)N12", "note": "[Bromocriptine]", "values": [{"measurement": "ORAL BIOAVAILABILITY", "setting": "[4]; Table CYP3A4", "result": "65-95% ^"}]}, {"smiles": "CCCC1O[C@@H]2C[C@H]3[C@@H]4CCC5=CC(=O)C=C[C@]5(C)[C@H]4[C@@H](O)C[C@]3(C)[C@]2(C(=O)CO)O1", "note": "(stereo partly shown) [Budesonide]", "values": [{"measurement": "ORAL BIOAVAILABILITY", "setting": "[4]; Table CYP3A4", "result": "9-21%^"}]}, {"smiles": "COc1ccccc1OCCNCC(O)COc1cccc2[nH]c3ccccc3c12", "note": "(stereo not shown) [Carvedilol]", "values": [{"measurement": "ORAL BIOAVAILABILITY", "setting": "[4]; Table CYP2D6", "result": "25-35% ^"}, {"measurement": "HALF LIFE", "setting": "[5]; Table CYP2D6", "result": "6 to 10", "unit": "h"}]}, {"smiles": "COc1cc(N)c(Cl)cc1C(=O)NC1CCN(CCCOc2ccc(F)cc2)CC1OC", "note": "(stereo not shown) [Cisapride]", "values": [{"measurement": "ORAL BIOAVAILABILITY", "setting": "[4]; Table CYP3A4", "result": "35-65% ^"}]}, {"smiles": "CNCC[C@H](Oc1cccc2ccccc12)c1cccs1", "note": "[Duloxetine]", "values": [{"measurement": "ORAL BIOAVAILABILITY", "setting": "[4]; Table CYP2D6", "result": "30-80% ^"}]}, {"smiles": "O=C1Nc2ccc(Cl)cc2[C@@](C#CC2CC2)(C(F)(F)F)O1", "note": "[Efavirenz]", "values": [{"measurement": "ORAL BIOAVAILABILITY", "setting": "[4]; Table CYP3A4", "result": "40-45% ^"}]}, {"smiles": "COc1ccc(C(=O)Nc2ccccc2CCC2CCCCN2C)cc1", "note": "(stereo not shown) [Encainide]", "values": [{"measurement": "ORAL BIOAVAILABILITY", "setting": "[4]; Table CYP2D6", "result": "25-90% ^"}, {"measurement": "HALF LIFE", "setting": "[5]; Table CYP2D6", "result": 11.3, "unit": "h"}]}, {"smiles": "C#Cc1cccc(Nc2ncnc3cc(OCCOC)c(OCCOC)cc23)c1", "note": "[Erlotinib]", "values": [{"measurement": "Protein binding %", "setting": "[6]", "result": 95, "unit": "%"}]}, {"smiles": "CC[C@H]1OC(=O)[C@H](C)[C@@H](O[C@H]2C[C@@](C)(OC)[C@@H](O)[C@H](C)O2)[C@H](C)[C@@H](O[C@@H]2O[C@H](C)C[C@H](N(C)C)[C@H]2O)[C@](C)(O)C[C@@H](C)C(=O)[C@H](C)[C@@H](O)[C@]1(C)O", "note": "[Erythromycin]", "values": [{"measurement": "ORAL BIOAVAILABILITY", "setting": "[4]; Table CYP3A4", "result": "30-65% ^"}]}, {"smiles": "C#C[C@]1(O)CC[C@H]2[C@@H]3CCc4cc(O)ccc4[C@H]3CC[C@@]21C", "note": "[Ethinyl Estradiol]", "values": [{"measurement": "ORAL BIOAVAILABILITY", "setting": "[4]; Table CYP3A4", "result": "38-48% ^"}]}, {"smiles": "CCOC(=O)C1=C(C)NC(C)=C(C(=O)OC)C1c1cccc(Cl)c1Cl", "note": "(stereo not shown) [Felodipine]", "values": [{"measurement": "ORAL BIOAVAILABILITY", "setting": "[4]; Table CYP3A4", "result": "13-20% ^"}]}, {"smiles": "O=C(NCC1CCCCN1)c1cc(OCC(F)(F)F)ccc1OCC(F)(F)F", "note": "(stereo not shown) [Flecainide]", "values": [{"measurement": "ORAL BIOAVAILABILITY", "setting": "[4]; Table CYP2D6", "result": "70-95% ^"}]}, {"smiles": "CNCCC(Oc1ccc(C(F)(F)F)cc1)c1ccccc1", "note": "(stereo not shown) [Fluoxetine]", "values": [{"measurement": "ORAL BIOAVAILABILITY", "setting": "[4]; Table CYP2C9", "result": "60-80% ^"}, {"measurement": "ORAL BIOAVAILABILITY", "setting": "[4]; Table CYP2D6", "result": "60-80% ^"}, {"measurement": "HALF LIFE", "setting": "[5]; Table CYP2C9", "result": "96 to 140", "unit": "h"}, {"measurement": "HALF LIFE", "setting": "[5]; Table CYP2D6", "result": "96 to 140", "unit": "h"}]}, {"smiles": "COc1cc2ncnc(Nc3ccc(F)c(Cl)c3)c2cc1OCCCN1CCOCC1", "note": "[Gefitinib]", "values": [{"measurement": "F %", "setting": "[4]; Table of Tyrosine Kinase Inhibitor Substrates, CYP3A4", "result": 59, "unit": "%"}, {"measurement": "Protein binding %", "setting": "[6]", "result": 90, "unit": "%"}, {"measurement": "T½", "setting": "[5]; Table of Tyrosine Kinase Inhibitor Substrates", "result": "6 to 49", "unit": "h"}]}, {"smiles": "CN(C)CCCN1c2ccccc2CCc2ccccc21", "note": "[Imipramine]", "values": [{"measurement": "ORAL BIOAVAILABILITY", "setting": "[4]; Table CYP2D6", "result": "94-96% ^"}]}, {"smiles": "CCCCC1=NC2(CCCC2)C(=O)N1Cc1ccc(-c2ccccc2-c2nnn[nH]2)cc1", "note": "[Irbesartan]", "values": [{"measurement": "ORAL BIOAVAILABILITY", "setting": "[4]; Table CYP2C9", "result": "60-80% ^"}, {"measurement": "HALF LIFE", "setting": "[5]; Table CYP2C9", "result": "11 to 15", "unit": "h"}]}, {"smiles": "COC(=O)C1=C(C)NC(C)=C(C(=O)OC(C)C)C1c1cccc2nonc12", "note": "(stereo not shown) [Isradipine]", "values": [{"measurement": "ORAL BIOAVAILABILITY", "setting": "[4]; Table CYP3A4, CR", "result": "CR: 15-24% ^"}, {"measurement": "ORAL BIOAVAILABILITY", "setting": "[4]; Table CYP3A4, IR", "result": "IR: 90-95% ^"}]}, {"smiles": "CNC1(c2ccccc2Cl)CCCCC1=O", "note": "(stereo not shown) [Ketamine]", "values": [{"measurement": "BIOAV[…]", "setting": "[4]; in vivo, im", "result": "IM: 90-93%, PO: 16%"}, {"measurement": "HALF LIFE", "setting": "[5]; in vivo", "result": "2 to 3", "unit": "h"}]}, {"smiles": "COc1ccc2c(c1)N(C[C@H](C)CN(C)C)c1ccccc1S2", "note": "[Levomepromazine]", "values": [{"measurement": "ORAL BIOAVAILABILITY", "setting": "[4]; Table CYP2D6", "result": "50-60% ^"}]}, {"smiles": "CN1C(C(=O)Nc2ccccn2)=C(O)c2sc(Cl)cc2S1(=O)=O", "note": "[Lomoxicam]", "values": [{"measurement": "BIOAVAILABILITY IM", "setting": "[4]; in vivo, im", "result": "IM: 87%"}, {"measurement": "HALF LIFE", "setting": "[5]; in vivo", "result": 4, "unit": "h"}]}, {"smiles": "Cc1cccc(C)c1OCC(C)N", "note": "(stereo not shown) [Mexiletine]", "values": [{"measurement": "ORAL BIOAVAILABILITY", "setting": "[4]; Table CYP2D6", "result": "80-90% ^"}, {"measurement": "HALF LIFE", "setting": "[5]; Table CYP1A2", "result": "10 to 12", "unit": "h"}, {"measurement": "HALF LIFE", "setting": "[5]; Table CYP2D6", "result": "6 to 17", "unit": "h"}]}, {"smiles": "CN1CCN2c3ccccc3Cc3ccccc3C2C1", "note": "(stereo not shown) [Mianserin]", "values": [{"measurement": "ORAL BIOAVAILABILITY", "setting": "[4]; Table CYP2D6", "result": "20-30% ^"}]}]}
